EC50 data for 22 molecules are collected here from US20240368109A1, “ALLOSTERIC MODULATORS OF NICOTINIC ACETYLCHOLINE RECEPTORS” (MERCK SHARP & DOHME LLC, priority 2021, published 2024).

For this experiment, the target named is human α7 nAChR (Homo sapiens (Human), UniProt P36544). As to the kind of experiment: Automated patch-clamp electrophysiology functional assay (Assay A). It counts as cell-based. The following applies: IonFlux HT whole-cell population patch, HEK cells expressing human α7/RIC-3, 40 μM acetylcholine. The protocol:
The α7 nAChR positive allosteric modulator (PAM) activity of the present compounds may be tested using assays known in the art. The α7 nAChR PAMs described herein have activities in an automated patch-clamp electrophysiology functional assay as described in the examples. The assay was performed using the IonFlux HT in a whole-cell, population patch configuration. See Golden et al. Assay Drug Dev. Technol. (2011) 9:608-619. The compounds were assessed for their ability to modulate the function of the human α7 nAChR stably expressed in a HEK cell line both in the presence, and in the absence of the natural α7 agonist acetylcholine. By performing a series of such measurements at different concentrations, the effective concentration of the α7 nAChR PAMs (EC50) was determined. See Spencer et al. Assay Drug Dev. Technol. (2012) 10:313-324.
Direct activation of α7 (agonism), and potentiation of acetylcholine-evoked α7 currents was determined as follows:
Automated Patch-Clamp Electrophysiology Functional Assay (Assay A)
Automated patch-clamp electrophysiology was performed using the IonFluxHT (Fluxion Biosciences Inc., San Francisco, CA) in the whole-cell, population patch configuration. Test compounds were assessed for their ability to modulate the function of the α7 nicotinic acetylcholine receptor both in the presence, and in the absence of the natural α7 agonist acetylcholine. A HEK cell line stably expressing both human RIC-3 and human α7 (PrecisION hnAChR α7/RIC-3, Eurofins Pharma, St. Charles, MO) was cultured in 175 cm^2 triple-layer tissue culture flasks to no more than 90% confluency in DMEM/F-12 growth media supplemented with 10% heat-inactivated fetal bovine serum, 1% non-essential amino acids, 0.625 μg/mL Puromycin, and 400 μg/mL Geneticin. Immediately prior to assay, cells were detached by first aspirating growth media, rinsing with Dulbecco's phosphate buffered saline, and then adding 10 mL of Accutase (Innovative Cell Technologies, San Diego, CA) to the flask and then incubating at 37° C. for 5 minutes. Detached cells were then recovered by the addition of 40 mL of CHO-serum-free media supplemented with 25 mM HEPES, and rocked gently in a 50 mL conical tube for 20 minutes prior to patch-clamp assay. After recovery, cells were pelleted by centrifugation at 1,000 RPM for 1 minute in a compact bench top centrifuge; recovery media was aspirated and cells were resuspended in external recording solution (150 mM NaCl, 5 mM KCl, 2 mM CaCl2), 1 mM MgCl2, 10 mM HEPES, 12 mM dextrose) to a density of 5.0×10^6 cells/mL. The cell suspension was added to the cell inlet wells on an IonFlux HT population patch plate which had previously been rinsed and primed with deionized H2O. Test compounds were serially diluted in DMSO and then resuspended to the final test concentration in external recording solution, with, or without 40 μM acetylcholine added to the external recording solution; test compounds were then transferred to the IonFlux HT population patch plate. Internal recording solution (110 mM TrisPO4, 28 mM TrisBase, 0.1 mM CaCl2), 2 mM MgCl2, 11 mM EGTA, 4 mM MgATP) was added to the internal recording solution inlet wells on the IonFlux HT patch plate previously loaded with cells and test compounds, and the plate loaded into the IonFlux HT instrument. A protocol was executed on the IonFlux HT to trap the cells, break into the cells, and establish the whole-cell recording configuration; cells were voltage-clamped at a holding potential of −60 mV for the duration of the experiment, all experiments were conducted at room temperature, and the IonFlux HT injection pressure was 8 psi for solution applications. Upon establishing the whole-cell configuration, external recording solution was perfused into the recording chambers for 120 seconds and then 40 μM acetylcholine was applied for 1 second and immediately washed off with external recording solution for 60 seconds. […]

Sequence of human α7 nAChR (P36544 23-502): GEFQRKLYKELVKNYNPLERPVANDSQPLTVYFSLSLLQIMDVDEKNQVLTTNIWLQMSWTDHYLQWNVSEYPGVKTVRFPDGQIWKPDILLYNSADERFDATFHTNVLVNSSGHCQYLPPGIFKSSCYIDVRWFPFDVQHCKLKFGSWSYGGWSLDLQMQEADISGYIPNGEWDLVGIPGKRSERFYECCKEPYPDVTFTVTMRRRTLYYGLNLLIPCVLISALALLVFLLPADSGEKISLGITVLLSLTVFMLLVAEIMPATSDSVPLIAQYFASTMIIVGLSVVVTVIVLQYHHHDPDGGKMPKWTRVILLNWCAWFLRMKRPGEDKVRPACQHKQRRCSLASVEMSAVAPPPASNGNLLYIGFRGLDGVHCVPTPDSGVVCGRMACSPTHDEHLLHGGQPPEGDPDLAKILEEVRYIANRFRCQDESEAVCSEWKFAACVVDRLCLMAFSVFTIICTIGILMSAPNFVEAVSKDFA

As usually defined, the EC50 is the concentration needed to bring the measured effect to its halfway point. For the molecule `O=C(NCc1nc(-c2ccccc2)no1)C1C2Oc3ccc(F)cc3C21` (stereo not drawn) [Example 7, exo-5-Fluoro-N-[(3-phenyl-1,2,4-oxadiazol-5-yl)methyl]-1a,6b-dihydro-1H-cyclopropa[b][1]benzofuran-1-carboxamide], the EC50 is, setting by setting: (electrophysiology EC50 values) 50 nM; (potency class) no more than 100 nM.
Take `O=C(NCc1cc(Br)no1)C1C2Oc3ccc(F)cc3C21` (stereo not drawn) [Example C47, exo-N-[(3-bromo-1,2-oxazol-5-yl)methyl]-5-fluoro-1a,6b-dihydro-1H-cyclopropa[b][1]benzofuran-1-carboxamide]: for the setting “potency class”, the EC50 is 500 to 5000 nM.
Take `O=C(NC1(c2ccccc2)CCC1)C1C2COc3ccc(F)cc3C21` (stereo not drawn) [Example A8, exo-6-fluoro-N-(1-phenylcyclobutyl)-1,1a,2,7b-tetrahydrocyclopropa[c][1]benzopyran-1-carboxamide]: the EC50 is 1000 nM (electrophysiology EC50 values) and 500 to 5000 nM (potency class).
Regarding `O=C(N[C@@H](C(F)F)C1CCCCC1)C1C2COc3ccc(F)cc3C21` (stereo partly drawn) [Example A7, exo-N-[(1R)-1-cyclohexyl-2,2-difluoroethyl]-6-fluoro-1,1a2,7b-tetrahydrocyclopropa[c][1]benzopyran-1-carboxamide], the EC50 is 800 nM (electrophysiology EC50 values) and 500 to 5000 nM (potency class).
For the molecule `O=C(N[C@@H](CO)C1CCCCC1)C1C2Sc3ccccc3C21` (stereo partly drawn) [Example C2, exo-N-[(1R)-1-cyclohexyl-2-hydroxyethyl]-1a,6b-dihydro-1H-cyclopropa[b][1]benzothiophene-1-carboxamide], the EC50 by setting is: (electrophysiology EC50 values) 2300 nM; (potency class) 500 to 5000 nM.
In the same order, the values of `CCOc1ccc([C@H](COC)NC(=O)C2C3Oc4cc(Br)ccc4C32)cc1` (stereo partly drawn) [Example B15, exo-4-bromo-N-[(1R)-1-(4-ethoxyphenyl)-2-methoxyethyl]-1a,6b-dihydro-1H-cyclopropa[b][1]benzofuran-1-carboxamide] are 480 nM and 100 to 500 nM.
In the same order, the values of `CCOc1ccc([C@H](COC)NC(=O)C2C3Oc4ccc(-c5c(C)noc5C)cc4C32)cc1` (stereo partly drawn) [Example B10, exo-5-(3,5-dimethyl-1,2-oxazol-4-yl)-N-[(1R)-1-(4-ethoxyphenyl)-2-methoxyethyl]-1a,6b-dihydro-1H-cyclopropa[b][1]benzofuran-1-carboxamide] are 2800 nM and 500 to 5000 nM.
As to `COc1cc2c(cc1OC)[C@@H](NC(=O)C1C3Oc4ccc(F)cc4C31)COC2` (stereo partly drawn) [Example C4, exo-N-[(4R)-6,7-dimethoxy-3,4-dihydro-1H-2-benzopyran-4-yl]-5-fluoro-1a,6b-dihydro-11H-cyclopropa[b][1]benzofuran-1-carboxamide], the EC50 (potency class) was 5000 to 50000 nM.
`C[C@H](NC(=O)C1C2Oc3ccc(F)cc3C21)c1cccc2ncccc12` (stereo partly drawn) [Example C36, 5-{(1S)-1-[(exo-5-fluoro-1a,6b-dihydro-1H-cyclopropa[b][1]benzofuran-1-carbonyl)amino]ethyl}quinoline]: the EC50 was 1300 nM (electrophysiology EC50 values) and 500 to 5000 nM (potency class).
As for `O=C(NCc1cc(F)ccc1F)C1C2Oc3ccc(F)cc3C21` (stereo not drawn) [Example C22, exo-N-[(2,5-difluorophenyl)methyl]-5-fluoro-1a,6b-dihydro-1H-cyclopropa[b][1]benzofuran-1-carboxamide], the EC50 was 3400 nM (electrophysiology EC50 values) and 500 to 5000 nM (potency class).
As to `O=C(N[C@H]1CCOc2cc(F)c(F)cc21)C1C2Oc3ccc(F)cc3C21` (stereo partly drawn) [Example C7, exo-N-[(4S)-6,7-difluoro-3,4-dihydro-2H-1-benzopyran-4-yl]-5-fluoro-1a,6b-dihydro-1H-cyclopropa[b][1]benzofuran-1-carboxamide], the EC50 was 1100 nM (electrophysiology EC50 values) and 500 to 5000 nM (potency class).
In the case of `O=C(NCc1noc(-c2ccccc2)n1)C1C2Oc3ccc(F)cc3C21` (stereo not drawn) [Example C49, exo-5-fluoro-N-[(5-phenyl-1,2,4-oxadiazol-3-yl)methyl]-1a,6b-dihydro-1H-cyclopropa[b][1]benzofuran-1-carboxamide], the EC50 is 270 nM (electrophysiology EC50 values) and 100 to 500 nM (potency class).
For `COc1cccc(OC)c1CNC(=O)C1C2COc3ccccc3C21` (stereo not drawn) [Example A17, exo-N-[(2,6-dimethoxyphenyl)methyl]-1,1a,2,7b-tetrahydrocyclopropa[c][1]benzopyran-1-carboxamide], the concentration giving a half-maximal response (EC50) (electrophysiology EC50 values) was determined as 1100 nM and the EC50 (potency class) is 500 to 5000 nM.
For the molecule `O=C(NCc1cccc(I)c1)C1C2Oc3ccc(F)cc3C21` (stereo not drawn) [Example C21, exo-5-fluoro-N-[(3-iodophenyl)methyl]-1a,6b-dihydro-1H-cyclopropa[b][1]benzofuran-1-carboxamide], the EC50 runs as follows: (electrophysiology EC50 values) 2100 nM; (potency class) 500 to 5000 nM.
In the same order, the values of `CC(NC(=O)C1C2Oc3ccc(F)cc3C21)c1cc2ccccc2o1` (stereo not drawn) [Example C20, exo-N-[1-(1-benzofuran-2-yl)ethyl]-5-fluoro-1a,6b-dihydro-1H-cyclopropa[b][1]benzofuran-1-carboxamide] are 2300 nM and 500 to 5000 nM.
Take `CC(C)(NC(=O)C1C2COc3ccc(F)cc3C21)c1cccc(Cl)c1` (stereo not drawn) [Example A18, exo-N-[2-(3-chlorophenyl)propan-2-yl]-6-fluoro-1,1a,2,7b-tetrahydrocyclopropa[c][1]benzopyran-1-carboxamide]: the EC50 (electrophysiology EC50 values) was found to be 2500 nM and the EC50 (potency class) lay within 500 to 5000 nM.
As for `CCOc1ccc([C@H](COC)NC(=O)C2C3Oc4c(Br)cccc4C32)cc1` (stereo partly drawn) [Example B8, exo-3-bromo-N-[(1R)-1-(4-ethoxyphenyl)-2-methoxyethyl]-1a,6b-dihydro-1H-cyclopropa[b][1]benzofuran-1-carboxamide], the EC50 is, setting by setting: (electrophysiology EC50 values) 280 nM; (potency class) 100 to 500 nM.
Take `O=C(NCc1ccccc1OCC1CC1)C1C2Oc3ccc(F)cc3C21` (stereo not drawn) [Example C40, exo-N-{[2-(cyclopropylmethoxy)phenyl]methyl}-5-fluoro-1a,6b-dihydro-1H-cyclopropa[b][1]benzofuran-1-carboxamide]: the 50% effective concentration (EC50) is, setting by setting: (electrophysiology EC50 values) 620 nM; (potency class) 500 to 5000 nM.
With `O=C(NCc1n[nH]c2c1CCCCC2)[C@H]1[C@@H]2Oc3ccc(F)cc3[C@@H]21` [Example C33, 3-{[(exo-5-fluoro-1a,6b-dihydro-1H-cyclopropa[b][1]benzofuran-1-carbonyl)amino]methyl}-1,4,5,6,7,8-hexahydrocyclohepta[c]pyrazole], for the setting “potency class”, the EC50 lay within 500 to 5000 nM.
Turning to `CCOc1ccc([C@H](COC)NC(=O)C2C3Oc4cccc(Br)c4C32)cc1` (stereo partly drawn) [Example B19, exo-6-bromo-N-[(1R)-1-(4-ethoxyphenyl)-2-methoxyethyl]-1a,6b-dihydro-1H-cyclopropa[b][1]benzofuran-1-carboxamide], the EC50 is 72 nM (electrophysiology EC50 values) and no more than 100 nM (potency class).
Taken in the same sequence, the figures for `COc1ccc2c(c1)OCC2NC(=O)C1C2Oc3ccc(F)cc3C21` (stereo not drawn) [Example C8, exo-5-fluoro-N-(6-methoxy-2,3-dihydro-1-benzofuran-3-yl)-1a,6b-dihydro-1H-cyclopropa[b][1]benzofuran-1-carboxamide] were 810 nM and 500 to 5000 nM.
In the same order, the values of `O=C(NCc1ccc2cnccc2c1)C1C2Oc3ccc(F)cc3C21` (stereo not drawn) [Example C38, 6-{[(exo-5-fluoro-1a,6b-dihydro-1H-cyclopropa[b][1]benzofuran-1-carbonyl)amino]methyl}isoquinoline] are 4700 nM and 500 to 5000 nM.
